Literature values as cited in patent US20060153823A1, “Compositions and methods for nutritional supplementation” (Everett Laboratories, Inc., priority 2005, published 2006).

What was measured:
[1] = tested on: patients with hypertension
[2] = tested on: patients with cardiomyopathy
[3] = tested on: patients with congestive heart failure
[4] = tested on: patients with ischemic heart disease
[5] = tested on: nitric oxide (NO)

Row | SMILES | blood pressure [1] | cardiac function including ejection fraction and cardiac output [2] | blood pressure [3] | myocardial metabolic function [3] | myocardial thickness [3] | magnitude and rate of clinical improvement [4] | levels and functioning of nitric oxide (NO) [5]
1 | COC1=C(OC)C(=O)C(C/C=C(\C)CC/C=C(\C)CC/C=C(\C)CC/C=C(\C)CC/C=C(\C)CC/C=C(\C)CC/C=C(\C)CC/C=C(\C)CC/C=C(\C)CCC=C(C)C)=C(C)C1=O [CoQ10, coenzyme Q10] | significantly reduce blood pressure | significant improvement in cardiac function | reduce blood pressure | improve myocardial metabolic function | reduce myocardial thickness | enhances both the magnitude and rate of clinical improvement | –
2 | Nc1nc2ncc(CNc3ccc(C(=O)N[C@@H](CCC(=O)O)C(=O)O)cc3)nc2c(=O)[nH]1 [folic acid] | – | – | – | – | – | – | improves the levels and functioning
